# Data published in patent US8129499B2 (priority 2008, dated 2012).
# Where two headings read alike, the source gives them in different places. Residues, ends and D or L forms follow the SMILES beside them. No end group written: not given here.
# Legend:
# purified PR/8 virus = tested on: purified PR/8 virus; design: species or system influenza virus A/PuertoRico/8/34 (PR/8, H1N1)
# MDCK cells = conditions: 5-75 μM peptide, 24 hours, in words
# cRBCs = conditions: for effect on cRBC membrane integrity: at any concentration (1-30 μM), in words
# in vitro = conditions: dog, MDCK cells
# [1] = 10 μM peptide, 64 HA units of purified A/PR/8/34, Yes/No
# [2] = 10 μM peptide, mock treated virus (64 HAU) = 100% hemagglutination
# [3] = 0.1-10 μM peptide, 64 HA units purified PR/8, estimated from dose response curves (Table 3)
Compound,HA inhibition (purified A/PR/8/34),% inhibition (purified A/PR/8/34; 10 μM) [%],further results
"RRKKLLPAVLLALLAP [SEQ. ID. NO: 21, RRKKLLPAVLLALLAP]",Yes,94 ± 4,EC50 (purified A/PR/8/34): 0.8 ± 0.3 µM
"RRKKVLLALLAP [SEQ. ID. NO: 23, RRKKVLLALLAP]",Yes,90 ± 4,EC50 (purified A/PR/8/34): 4 ± 0.8 µM
"RRKKAAV [SEQ. ID. NO: 14, RRKKAAV]",No,0,
"RRKKLAVLLALLA [SEQ. ID. NO: 45, RRKKLAVLLALLA]",Yes,,virion aggregation by electron microscopy (purified PR/8 virus): large aggregates; EC50 (purified A/PR/8/34): 3 µM
"KKLAVLLALLA [SEQ ID NO: 53, KKLAVLLALLA]",,0,
"RRKKAAVALLPAVLLAL [SEQ. ID. NO: 4, RRKKAAVALLPAVLLAL]",Yes,89 ± 3,EC50 (purified A/PR/8/34): 3.8 ± 1.9 µM
"RRKKAAAAAAAAA [SEQ ID NO: 49, RRKKAAAAAAAAA]",,87.5,EC50 (purified A/PR/8/34): ~7 µM; viral hemagglutination activity (FIG. 7) (purified A/PR/8/34): detected to a lesser extent
"RRKKA [SEQ. ID. NO: 16, RRKKA]",No,0,
"RRKKAAVAL [SEQ. ID. NO: 12, RRKKAAVAL]",No,0,
"RKKLAVLLALLA [SEQ ID NO: 50, RKKLAVLLALLA]",,75,EC50 (purified A/PR/8/34): 8 µM; viral hemagglutination activity (FIG. 7) (purified A/PR/8/34): detected to a lesser extent
"RRKKLAP [SEQ. ID. NO: 27, RRKKLAP]",No,0,
"O=C(CCCCCCC(=O)ON1C(=O)CCC1=O)ON1C(=O)CCC1=O [DSS, disuccinimidyl suberate, reference compound]",,,virion aggregation by electron microscopy (purified PR/8 virus): large aggregates
"RRKKLLAVLLALLA [SEQ ID NO: 44, RRKKLLAVLLALLA]",Yes,95±2,EC50 (purified A/PR/8/34): 3 µM
"RRKKAAVALLPAVL [SEQ. ID. NO: 7, RRKKAAVALLPAVL]",No,0,
"RKAVLLALLA [SEQ ID NO: 51, RKAVLLALLA]",,50,viral hemagglutination activity (FIG. 7) (purified A/PR/8/34): detected to a lesser extent
"RRKKAAVA [SEQ. ID. NO: 13, RRKKAAVA]",No,0,
"RRKKLPAVLLALLAP [SEQ. ID. NO: 22, RRKKLPAVLLALLAP]",Yes,,viral hemagglutination activity (FIG. 7) (purified A/PR/8/34): the same as that for the EB peptide
"RRKKLLALLAP [SEQ. ID. NO: 24, RRKKLLALLAP]",No,0,
"RRKKAAVALLPAVLLALL [SEQ. ID. NO: 3, RRKKAAVALLPAVLLALL]",,,HA inhibition (purified A/PR/8/34; [1]): Yes; % inhibition (purified A/PR/8/34; [2]): 95 ± 2%; EC50 (purified A/PR/8/34; [3]): 0.6 ± 0.3 µM
"EEDDLAVLLALLA [SEQ ID NO: 54, EEDDLAVLLALLA]",,0,
"RRKKVALLPAVLLALLAP [SEQ. ID. NO: 19, RRKKVALLPAVLLALLAP]",,,HA inhibition (purified A/PR/8/34; [1]): Yes; % inhibition (purified A/PR/8/34; [2]): 94 ± 4%; EC50 (purified A/PR/8/34; [3]): 0.5 ± 0.4 µM
"RRKKAAVALLPAVLLALLAP [EB, reference compound]",,,"% inhibition (purified A/PR/8/34; [2]): 95 ± 2%; % inhibition (purified A/PR/8/34; 10 μM peptide, normalized to EB-treated (10 μM EB) virus (64 HAU) = 100% inhibition (Table 4)): 100%; EC50 (purified A/PR/8/34; [3]): 2.6 µM; EC50 (purified A/PR/8/34; Example 6, Table 4): 2 µM; toxicity against MDCK cells (MDCK cells): limited toxicity; effect on cRBC membrane integrity (cRBCs): no effect"

Compound,HA inhibition (purified A/PR/8/34),% inhibition (purified A/PR/8/34; 10 μM) [%],further results
"RRKKAP [SEQ. ID. NO: 28, RRKKAP]",No,0,
"RRKKLAVAAALLA [SEQ ID NO: 55, RRKKLAVAAALLA]",,0,
"RRKKAAVALLPAV [SEQ. ID. NO: 8, RRKKAAVALLPAV]",No,0,
"N=C(N)NCCC[C@H](NC(=O)[C@@H](N)CCCNC(=N)N)C(=O)N[C@@H](CCCCN)C(=O)N[C@@H](CCCCN)C(=O)O [SEQ. ID. NO: 17, RRKK] (H-RRKK-OH; N-terminus and C-terminus assumed)",No,0,antiviral activity (purified A/PR/8/34): no antiviral activity
"RRKKAAVALLP [SEQ. ID. NO: 10, RRKKAAVALLP]",No,4 ± 8,
"RRKKP [SEQ. ID. NO: 29, RRKKP]",No,0,
"RRKKAALLVLAALAVLA [SEQ. ID. NO: 30, RRKKAALLVLAALAVLA]",No,0,
"RRKKLLAP [SEQ. ID. NO: 26, RRKKLLAP]",No,0,
"RRKKAVALLPAVLLALLAP [SEQ. ID. NO: 18, RRKKAVALLPAVLLALLAP]",,,HA inhibition (purified A/PR/8/34; [1]): Yes; % inhibition (purified A/PR/8/34; [2]): 94 ± 6%; EC50 (purified A/PR/8/34; [3]): 0.8 ± 0.3 µM
"KLAVLLALLA [SEQ ID NO: 52, KLAVLLALLA]",,25,
"RRKKLAVLLAAAA [SEQ ID NO: 56, RRKKLAVLLAAAA]",,0,
"RRKKLAALPLVLAAPLAVLA [EBX, reference compound]",,0,effect on cRBC membrane integrity (cRBCs): no effect
"RRKKAA [SEQ. ID. NO: 15, RRKKAA]",No,0,
"RRKKAAVALLPAVLLA [SEQ. ID. NO: 5, RRKKAAVALLPAVLLA]",Yes,96 ± 3,EC50 (purified A/PR/8/34): 2.8 ± 1.1 µM
"RRKKAAVALLAVLLALLA [SEQ. ID. NO: 43, RRKKAAVALLAVLLALLA]",,,HA inhibition (purified A/PR/8/34; [1]): Yes; % inhibition (purified A/PR/8/34; [2]): 95±2%; EC50 (purified A/PR/8/34; [3]): 1.6 ± 1.2 µM
"RRKKAAVALL [SEQ. ID. NO: 11, RRKKAAVALL]",No,0,
"RRKKAAVALLPA [SEQ. ID. NO: 9, RRKKAAVALLPA]",No,0,
"RRKKAAVALLPAVLL [SEQ. ID. NO: 6, RRKKAAVALLPAVLL]",No,0,
"RRKKALLAP [SEQ. ID. NO: 25, RRKKALLAP]",No,0,
"RRKKVALLAVLLALLA [SEQ. ID. NO: 32, RRKKVALLAVLLALLA]",,94 ± 4,"EC50 (purified A/PR/8/34): 0.5 ± 0.5 µM; toxicity against MDCK cells (MDCK cells): significant toxicity; lysis (hemoglobin release) compared to SDS treated control (cRBCs; 10 μM peptide): 71%; lysis (hemoglobin release) compared to SDS treated control (cRBCs; 30 μM peptide): 100%; concentration inducing hemoglobin release (cRBCs; 0.5% cRBC, 1 hour at 37° C.): exceeding 5 μM; viability at 24 h, 75 µM (in vitro): 20%"
"RRKKALLPAVLLALLAP [SEQ. ID. NO: 20, RRKKALLPAVLLALLAP]",Yes,94 ± 3,EC50 (purified A/PR/8/34): 0.7 ± 0.3 µM
"RRKKAAVALLPAVLLALLA [SEQ. ID. NO: 2, RRKKAAVALLPAVLLALLA]",,,HA inhibition (purified A/PR/8/34; [1]): Yes; % inhibition (purified A/PR/8/34; [2]): 94 ± 2%; EC50 (purified A/PR/8/34; [3]): 0.5 ± 0.3 µM
